Source: US20050171116A1, “Enhancing the efficacy of tubercular drugs” (priority 2004, published 2005)

Tests used:
Type in all cases: cell-based, Mycobacterium Tuberculosis
Conditions in all cases: LJ medium, in vitro
[1] = test system: Multi-Drug-Resistant strains of MTB
[2] = test system: Rifampicin-resistant strains of MTB
[3] = test system: Isoniazid-Resistant strains of MTB

Measured: antibacterial efficacy

Cc1c(C)c2c(c(C)c1O)CC[C@@](C)(CCC[C@H](C)CCC[C@H](C)CCCC(C)C)O2 [Factor Alpha tx, α-tocopherol]
effective: all assays above
